Measurements: ChEMBL document CHEMBL4382199, “Application of Virtual Screening to the Identification of New LpxC Inhibitor Chemotypes, Oxazolidinone and Isoxazoline” (J Med Chem, 2018)
≈ marks a conversion by molar mass, not a printed value. Calls of active or inactive are those of the source. The rule behind the calls is not given here.

Key:
[1] = biological target: T1, UDP-3-O-acyl-N-acetylglucosamine deacetylase (Pseudomonas aeruginosa (strain ATCC 15692 / PAO1 / 1C / PRS 101 / LMG12228), UniProt P47205); assay: Binding affinity to Pseudomonas aeruginosa PAO1 NB52019 LpxC after 60 to 420 secs by SPR method
T1 sequence (P47205 whole entry): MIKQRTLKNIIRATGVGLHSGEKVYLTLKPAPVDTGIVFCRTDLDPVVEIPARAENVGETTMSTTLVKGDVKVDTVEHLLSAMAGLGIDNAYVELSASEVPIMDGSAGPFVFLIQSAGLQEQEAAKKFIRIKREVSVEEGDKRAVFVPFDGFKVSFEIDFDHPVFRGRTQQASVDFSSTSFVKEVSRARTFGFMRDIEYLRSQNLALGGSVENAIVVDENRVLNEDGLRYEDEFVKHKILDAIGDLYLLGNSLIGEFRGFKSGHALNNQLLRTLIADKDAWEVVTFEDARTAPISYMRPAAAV

Pseudomonas aeruginosa [2] = assay: Antimicrobial activity against Pseudomonas aeruginosa ATCC 27853 after 20 hrs by CLSI protocol-based microdilution assay; format: functional; conditions: ATCC 27853, 20 h
Escherichia coli = assay: Antimicrobial activity against Escherichia coli ATCC 25922 after 20 hrs by CLSI protocol-based microdilution assay; format: functional; conditions: ATCC 25922, 20 h
Klebsiella pneumoniae [3] = assay: Antimicrobial activity against Klebsiella pneumoniae ATCC 43816 after 20 hrs by CLSI protocol-based microdilution assay; format: functional; conditions: ATCC 43816, 20 h
[4] = Lipophilicity, log D of the compound at pH 7.4; format: physicochemical; conditions: buffer
Klebsiella pneumoniae [5] = assay: Inhibition of LpxC in Klebsiella pneumoniae ATCC 43816 assessed as antibacterial activity after 20 hrs in presence of rifampicin by CLSI protocol-based microdilution assay
Klebsiella pneumoniae [6] = assay: Inhibition of LpxC in Klebsiella pneumoniae ATCC 43816 assessed as antibacterial activity after 20 hrs in presence of vancomycin by CLSI protocol-based microdilution assay
Klebsiella pneumoniae [7] = assay: Inhibition of LpxC in Klebsiella pneumoniae ATCC 43816 assessed as potentiation factor by measuring ratio of MIC of compound alone to MIC of compound in presence of rifampicin after 20 hrs by CLSI protocol-based microdilution assay
Klebsiella pneumoniae [8] = assay: Inhibition of LpxC in Klebsiella pneumoniae ATCC 43816 assessed as potentiation factor by measuring ratio of MIC of compound alone to MIC of compound in presence of vancomycin after 20 hrs by CLSI protocol-based microdilution assay
Klebsiella pneumoniae [9] = assay: Antibacterial activity against Klebsiella pneumoniae infected in lung infection mouse model assessed as log reduction in bacterial load in lungs at 200 mg/kg, sc dosed every 6 hrs measured after 48 hrs post first treatment; format: functional, organism-based
Klebsiella pneumoniae [10] = assay: Antibacterial activity against Klebsiella pneumoniae infected in mouse model of lung infection assessed as reduction in bacterial load in lung at 200 mg/kg, sc dosed every 6 hrs and measured after 48 hrs post first treatment; format: functional, organism-based
[11] = Protein binding in mouse plasma; format: ADME, cell-free; conditions: read-out: PPB (converted)
[12] = Protein binding in rat plasma; format: ADME, cell-free; conditions: read-out: PPB (converted)
[13] = Protein binding in dog plasma; format: ADME, cell-free, Canis lupus familiaris; conditions: read-out: PPB (converted)
[14] = Protein binding in human plasma; format: ADME, cell-free; conditions: read-out: PPB (converted)
[15] = Solubility of the compound at pH 7.4; format: physicochemical; conditions: buffer
[16] = Solubility of the compound at pH 9; format: physicochemical; conditions: buffer
[17] = Clearance in mouse at 60 mg/kg, iv; format: ADME, organism-based; conditions: in vivo
[18] = Volume of distribution at steady state in mouse at 60 mg/kg, iv; format: ADME, organism-based; conditions: in vivo, read-out: Vdss
[19] = Half life in mouse at 60 mg/kg, iv; format: ADME, organism-based; conditions: in vivo
[20] = Clearance in rat at 5 mg/kg, iv; format: ADME, organism-based; conditions: in vivo
[21] = Volume of distribution at steady state in rat at 5 mg/kg, iv; format: ADME, organism-based; conditions: in vivo, read-out: Vdss
[22] = Half life in rat at 5 mg/kg, iv; format: ADME, organism-based; conditions: in vivo
[23] = Clearance in dog at 10 mg/kg, iv; format: ADME, organism-based, Canis lupus familiaris; conditions: in vivo
[24] = Volume of distribution at steady state in dog at 10 mg/kg, iv; format: ADME, organism-based, Canis lupus familiaris; conditions: in vivo, read-out: Vdss
[25] = Half life in dog at 10 mg/kg, iv; format: ADME, organism-based, Canis lupus familiaris; conditions: in vivo
Pseudomonas aeruginosa [26] = assay: Antimicrobial activity against Pseudomonas aeruginosa infected in mouse model of neutropenic thigh infection assessed reduction in bacterial levels in thigh at 105 mg/kg/day, sc administered 2 hrs post infection every 6 hrs for 24 hrs; format: functional, organism-based
Pseudomonas aeruginosa [27] = assay: Antimicrobial activity against Pseudomonas aeruginosa infected in mouse model of neutropenic thigh infection assessed reduction in bacterial levels in thigh at 160 mg/kg/day, sc administered 2 hrs post infection every 6 hrs for 24 hrs; format: functional, organism-based
Klebsiella pneumoniae [28] = assay: Antibacterial activity against Klebsiella pneumoniae infected in mouse model of lung infection assessed as reduction in bacterial load in lung at 20 mg/kg, sc dosed every 6 hrs and measured after 48 hrs post first treatment; format: functional
Klebsiella pneumoniae [29] = assay: Antibacterial activity against Klebsiella pneumoniae infected in mouse model of lung infection assessed as reduction in bacterial load in lung at 20 mg/kg, sc dosed every 6 hrs co-treated with 200 mg/kg vancomycin and measured after 48 hrs post first treatment (reference value: 4.5 log10CFU/g); format: functional

SMILES | Kd [1] | MIC (Pseudomonas aeruginosa [2]) | MIC (Escherichia coli) | MIC (Klebsiella pneumoniae [3]) | logD [4] | MIC (Klebsiella pneumoniae [5]) | MIC (Klebsiella pneumoniae [6]) | further results
CCCc1ccc(N2C[C@H](C[C@](C)(C(=O)NO)S(C)(=O)=O)OC2=O)cc1 | 0.17 nM | 0.5 µg/mL (≈ 1.3 µM) | 4 µg/mL (≈ 10.4 µM) | 32 µg/mL (≈ 83.2 µM) | 1.6 | 1 µg/mL | 8 µg/mL | fold change (FC) (Klebsiella pneumoniae [7]): 32; fold change (FC) (Klebsiella pneumoniae [8]): 4
C[C@@](C[C@H]1CN(c2ccc(-c3ccccc3)cc2)C(=O)O1)(C(=O)NO)S(C)(=O)=O | 0.026 nM | 1 µg/mL (≈ 2.39 µM) | 0.25 µg/mL (≈ 0.597 µM) | 4 µg/mL (≈ 9.56 µM) | 2.3 | – | – | –
C[C@@H](O)Cc1ccc(-c2ccc(N3C[C@H](C[C@](C)(C(=O)NO)S(C)(=O)=O)OC3=O)cc2)cc1 | 0.12 nM | 2 µg/mL (≈ 4.2 µM) | 0.25 µg/mL (≈ 0.525 µM) | 1 µg/mL (≈ 2.1 µM) | 1.2 | – | – | –
C/C=C/c1ccc(C2=NO[C@@H](C[C@](C)(C(=O)NO)S(C)(=O)=O)C2)cc1 | 0.3 nM | 1 µg/mL (≈ 2.73 µM) | 2 µg/mL (≈ 5.46 µM) | 16 µg/mL (≈ 43.7 µM) | 2 | – | – | –
CC(C)(O)[C@H]1C[C@H](C#Cc2ccc(N3C[C@H](C[C@](C)(C(=O)NO)S(C)(=O)=O)OC3=O)cc2)C1 | 0.2 nM | 1 µg/mL (≈ 2.09 µM) | 0.5 µg/mL (≈ 1.04 µM) | 1 µg/mL (≈ 2.09 µM) | 1.6 | 0.5 µg/mL | 1 µg/mL | fold change (FC) (Klebsiella pneumoniae [7]): 2; fold change (FC) (Klebsiella pneumoniae [8]): 1
CO[C@H]1/C=C/O[C@@]2(C)Oc3c(C)c(O)c4c(O)c(c(/C=N/N5CCN(C)CC5)c(O)c4c3C2=O)NC(=O)/C(C)=C\C=C\[C@H](C)[C@H](O)[C@@H](C)[C@@H](O)[C@@H](C)[C@H](OC(C)=O)[C@@H]1C [RIFAMPIN] | – | – | – | 32 µg/mL (≈ 38.9 µM) | – | – | – | –
C[C@@](C[C@H]1CC(c2ccc(Br)cc2)=NO1)(C(=O)NO)S(C)(=O)=O | 2.6 nM | 4 µg/mL (≈ 9.87 µM) | 32 µg/mL (≈ 79 µM) | > 64 µg/mL | 1.2 | – | – | –
CC#Cc1ccc(C2=NO[C@@H](C[C@](C)(C(=O)NO)S(C)(=O)=O)C2)cc1 | 0.44 nM | 0.5 µg/mL (≈ 1.37 µM) | 1 µg/mL (≈ 2.74 µM) | 8 µg/mL (≈ 22 µM) | 1.4 | 0.25 µg/mL | 2 µg/mL | fold change (FC) (Klebsiella pneumoniae [7]): 32; fold change (FC) (Klebsiella pneumoniae [8]): 4
CC#Cc1ccc(N2C[C@H](C[C@](C)(C(=O)NO)S(C)(=O)=O)OC2=O)cc1 | 0.063 nM | 0.5 µg/mL (≈ 1.31 µM) | 2 µg/mL (≈ 5.26 µM) | 16 µg/mL (≈ 42.1 µM) | 1.4 | 0.25 µg/mL | 4 µg/mL | fold change (FC) (Klebsiella pneumoniae [7]): 64; fold change (FC) (Klebsiella pneumoniae [8]): 4
CN[C@H](CC(C)C)C(=O)N[C@H]1C(=O)N[C@@H](CC(N)=O)C(=O)N[C@H]2C(=O)N[C@H]3C(=O)N[C@H](C(=O)N[C@H](C(=O)O)c4cc(O)cc(O)c4-c4cc3ccc4O)[C@H](O)c3ccc(c(Cl)c3)Oc3cc2cc(c3O[C@@H]2O[C@H](CO)[C@@H](O)[C@H](O)[C@H]2O[C@H]2C[C@](C)(N)[C@H](O)[C@H](C)O2)Oc2ccc(cc2Cl)[C@H]1O [VANCOMYCIN] | – | – | – | > 128 µg/mL | – | – | – | Activity (Klebsiella pneumoniae [9]): inactive; Activity (Klebsiella pneumoniae [10]): inactive
C[C@@](C[C@H]1CN(c2ccc(Br)cc2)C(=O)O1)(C(=O)NO)S(C)(=O)=O | 0.21 nM | 0.5 µg/mL (≈ 1.19 µM) | > 64 µg/mL | > 64 µg/mL | 1 | – | – | –
CCCc1ccc(C2=NO[C@@H](C[C@](C)(C(=O)NO)S(C)(=O)=O)C2)cc1 | 0.2 nM | 1 µg/mL (≈ 2.71 µM) | 4 µg/mL (≈ 10.9 µM) | 16 µg/mL (≈ 43.4 µM) | 1.7 | – | – | –
C[C@@H](O)[C@H](NC(=O)c1ccc(C#Cc2ccc(CN3CCOCC3)cc2)cc1)C(=O)NO | – | 2 µg/mL (≈ 4.57 µM) | 0.125 µg/mL (≈ 0.286 µM) | 0.5 µg/mL (≈ 1.14 µM) | – | – | – | –
C/C=C/c1ccc(N2C[C@H](C[C@](C)(C(=O)NO)S(C)(=O)=O)OC2=O)cc1 | 0.1 nM | 1 µg/mL (≈ 2.61 µM) | 4 µg/mL (≈ 10.5 µM) | 32 µg/mL (≈ 83.7 µM) | 1.4 | – | – | –
C[C@@](C[C@H]1CN(c2ccc(C3CC3)cc2)C(=O)O1)(C(=O)NO)S(C)(=O)=O | 0.12 nM | 2 µg/mL (≈ 5.23 µM) | 32 µg/mL (≈ 83.7 µM) | > 64 µg/mL | 1.5 | – | – | –
C[C@@](C[C@H]1CN(c2ccc(C#CC3CC3)cc2)C(=O)O1)(C(=O)NO)S(C)(=O)=O | – | 0.5 µg/mL (≈ 1.23 µM) | 0.125 µg/mL (≈ 0.308 µM) | 1 µg/mL (≈ 2.46 µM) | 1.9 | 0.06 µg/mL | 0.25 µg/mL | fraction unbound [11]: 0.13; fraction unbound [12]: 0.11; fraction unbound [13]: 0.14; fraction unbound [14]: 0.14; solubility [15]: 126 µg/mL (≈ 310 µM); solubility [16]: > 20 mg/mL; clearance [17]: 49 mL/min/kg; Vd [18]: 1.6 L/kg; half-life [19]: 330 min; clearance [20]: 24 mL/min/kg; Vd [21]: 1 L/kg; half-life [22]: 54 min; clearance [23]: 26 mL/min/kg; Vd [24]: 0.8 L/kg; half-life [25]: 42 min; Activity (Pseudomonas aeruginosa [26]): Active; Activity (Pseudomonas aeruginosa [27]): Active; Activity (Klebsiella pneumoniae [28]): 4.5 log10CFU/g; Activity (Klebsiella pneumoniae [29]): 2.5 log10CFU/g
C[C@@](C[C@H]1CC(c2ccc(C#CC3CC3)cc2)=NO1)(C(=O)NO)S(C)(=O)=O | 0.17 nM | 1 µg/mL (≈ 2.56 µM) | 0.125 µg/mL (≈ 0.32 µM) | 0.5 µg/mL (≈ 1.28 µM) | 2.2 | 0.03 µg/mL | 0.125 µg/mL | fold change (FC) (Klebsiella pneumoniae [7]): 16; fold change (FC) (Klebsiella pneumoniae [8]): 4
C[C@@](C[C@H]1CN(c2ccc(-c3ccccc3)cn2)C(=O)O1)(C(=O)NO)S(C)(=O)=O | 0.12 nM | 2 µg/mL (≈ 4.77 µM) | 2 µg/mL (≈ 4.77 µM) | 32 µg/mL (≈ 76.3 µM) | 1.8 | – | – | –
